# ChEMBL document CHEMBL1158725, “Microbial genomics as a guide to drug discovery and structural elucidation: ECO-02301, a novel antifungal agent, as an example” (2005)
# Key:
# Assay type in all cases: functional
# Candida albicans = assay: Antifungal activity against Candida albicans ATCC 10231 by broth dilution susceptibility test
# Nakaseomyces glabratus = assay: Antifungal activity against Candida glabrata ATCC 90030 by broth dilution susceptibility test
# Clavispora lusitaniae = assay: Antifungal activity against Candida lusitaniae ATCC 200953 by broth dilution susceptibility test
# Candida tropicalis = assay: Antifungal activity against Candida tropicalis ATCC 200955 by broth dilution susceptibility test
# Pichia kudriavzevii = assay: Antifungal activity against Candida krusei LSPQ 0309 by broth dilution susceptibility test
# Saccharomyces cerevisiae = assay: Antifungal activity against Saccharomyces cerevisiae ATCC 9763 by broth dilution susceptibility test
# Aspergillus fumigatus = assay: Antifungal activity against Aspergillus fumigatus ATCC 204305 by broth dilution susceptibility test
# Aspergillus flavus = assay: Antifungal activity against Aspergillus flavus ATCC 204304 by broth dilution susceptibility test
# Cryptococcus neoformans = assay: Antifungal activity against Cryptococcus neoformans ATCC 32045 by broth dilution susceptibility test
Structure (SMILES),MIC (Candida albicans) [µg/mL],MIC (Nakaseomyces glabratus) [µg/mL],MIC (Clavispora lusitaniae) [µg/mL],MIC (Candida tropicalis) [µg/mL],MIC (Pichia kudriavzevii) [µg/mL],MIC (Saccharomyces cerevisiae) [µg/mL],MIC (Aspergillus fumigatus) [µg/mL],MIC (Aspergillus flavus) [µg/mL],MIC (Cryptococcus neoformans) [µg/mL]
CC(/C=C/CC/C=C/C=C/C=C/C=C/C(=O)NC1=C(O)CCC1=O)C(O)C(C)C(O)/C=C/C=C/C=C/C=C/C=C/CC(O[C@@H]1O[C@@H](C)[C@H](O)[C@@H](O)[C@H]1O)C(C)C(=O)CC(O)CC(O)CC(O)/C=C/CC(O)CC(O)CC(O)CC(O)/C=C/CC(O)CC(O)CCCN (stereo in doubt),4,4,4,4,4,4,16,≥ 8,4
C[C@@H]1[C@H](O)[C@@H](C)/C=C/C=C/C=C/C=C/C=C/C=C/C=C/[C@H](O[C@@H]2O[C@H](C)[C@@H](O)[C@H](N)[C@@H]2O)C[C@@H]2O[C@](O)(C[C@@H](O)C[C@@H](O)[C@H](O)CC[C@@H](O)C[C@@H](O)CC(=O)O[C@H]1C)C[C@H](O)[C@H]2C(=O)O [AMPHOTERICIN B],1,1,1,2,,1,2,4,
